From patent US6784176B2, “Solvates of pymetrozine” (priority 1999, dated 2004)

Test: Reversible water uptake and release of pymetrozine at defined relative humidity
Format: physicochemical
Settings: room temperature
From the text: The above-mentioned water content of 16 to 17% by weight corresponds very well to a dihydrate. Even pesticidal formulations that contain water-free and solvent-free pymetrozine take up usually water or the corresponding solvent from the atmosphere when left to stand under sufficiently high vapour pressure.

In the case of `CC1=NNC(=O)N(/N=C/c2cccnc2)C1` [pymetrozine], the water taken up (relative humidity between 60% and 70%) is reported as 16 to 17 % by weight and the water release (relative humidity of less than ca. 10%, water-containing pymetrozine) is reported as “gives up the water completely”.
